Assay results as given in the METLIN SMRT retention time set (Domingo-Almenara et al. 2019).

Assay: gradient 5% acetonitrile 3 min, to 50% in 2 min, to 85% in 15 min, held 3 min, 100 µL/min
Settings: column: Zorbax Extend-C18 2.1 x 50 mm; eluents: water / acetonitrile, 0.1% formic acid
Method in brief: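 Values are retention times taken from adduct peaks that software picked and an analyst inspected. The pure standards were run as mixtures of ~100 molecules on HPLC linked to a quadrupole time-of-flight mass spectrometer, in positive and negative ionization mode. A Zorbax Extend-C18 column (2.1 × 50 mm, 1.8 μm) was used at 100 μL/min with water and acetonitrile, each including 0.1% formic acid.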

CCCc1ccc(S(=O)(=O)N2CCC(n3c(-c4ccco4)nc4cccnc43)C2)cc1 (stereo not given)
RP-LC retention time: 1010 s

CNC(=O)[C@@H]1CN(C(=O)Cn2c(=O)oc3ccccc32)C[C@H]1c1n[nH]c(C)n1
RP-LC retention time: 578 s

CCCN1C(=O)c2cc(S(=O)(=O)Nc3ccccc3OC)ccc2Oc2cccnc21
RP-LC retention time: 1080 s

COc1ccccc1CNC(=O)CN1C(=O)C2CCCCN2c2ccc(S(=O)(=O)N(C)C)cc21 (stereo not given)
RP-LC retention time: 885 s

O=C(NCc1ccncc1)C1CC(=O)N(CCc2c[nH]c3ccc(F)cc23)C1 (stereo not given)
RP-LC retention time: 588 s

Cc1ccc(CSc2nc(CC(=O)NCc3cccnc3)cs2)cc1
RP-LC retention time: 605 s

COc1ccc(C(=O)N2CCN(c3cc(C)n4cnnc4n3)CC2)c(OC)c1
RP-LC retention time: 999 s

C[C@H](NC(=O)C1CCCN(S(=O)(=O)c2ccc(F)cc2)C1)C(=O)O (stereo not given in full)
RP-LC retention time: 669 s

Cc1cc(C)n(-c2ccc(C(=O)NC3CCC(C)CC3)cn2)n1 (stereo not given)
RP-LC retention time: 1010 s

Cc1nc([C@@H]2CN(C(=O)c3cscn3)C[C@H]2C(N)=O)n[nH]1
RP-LC retention time: 533 s

CN(C(=O)CSc1nc(-c2ccccc2)no1)c1ccc(F)cc1
RP-LC retention time: 1020 s

O=C(NCc1nnc(SCc2c(F)cccc2Cl)o1)c1cccc(C(F)(F)F)c1
RP-LC retention time: 933 s

COc1ccc(-n2c(N)cc(=O)nc2SCC(=O)Nc2cc(C)on2)cc1
RP-LC retention time: 588 s

CCCN1C(=O)Cc2ccccc2C1C(=O)NCc1cccs1 (stereo not given)
RP-LC retention time: 758 s

COC(=O)c1cc(C)sc1NC(=O)CC1Sc2ccc(C(F)(F)F)cc2NC1=O (stereo not given)
RP-LC retention time: 1030 s

Cc1ccc(CNC(=O)C2CCCN2S(=O)(=O)c2cc3c(cc2Cl)NC(=O)CO3)cc1 (stereo not given)
RP-LC retention time: 786 s

Cc1ccc2nc(Nc3nccc(C)n3)nc(C)c2c1
RP-LC retention time: 616 s

O=C1[C@H]2CN(Cc3ccc(C(F)(F)F)cc3)C[C@H]2C(=O)N1CCc1ccccc1
RP-LC retention time: 984 s

CCN(CC)C(=O)c1ccc2c(c1)N(CC(=O)N(C)Cc1ccccc1)C(=O)CS2
RP-LC retention time: 787 s

CCN(C(=O)c1ccc(C)cc1)c1nc(-c2ccc(C)cc2)cs1
RP-LC retention time: 1320 s

CN1C(=O)c2cc(S(=O)(=O)NCc3ccc(F)cc3)ccc2Oc2cccnc21
RP-LC retention time: 951 s

CNC(=O)c1csc2c1CCCCC2
RP-LC retention time: 787 s

Cc1cc(NC(=O)C2CCCN(c3cnc4nccnc4c3)C2)ccc1F (stereo not given)
RP-LC retention time: 769 s

COc1ccc(N2CCN(C(=O)c3[nH]c(C)c(S(=O)(=O)N4CCC(C)CC4)c3C)CC2)cc1
RP-LC retention time: 896 s

CS(=O)(=O)N1CCCC1C(=O)Nc1nc(-c2cc(Cl)sc2Cl)cs1 (stereo not given)
RP-LC retention time: 993 s

CCOC(=O)C1=CN(Cc2ccccc2)S(=O)(=O)N=C1C
RP-LC retention time: 970 s

Cn1c(=O)c(C(=O)N2CCCC2)nc2ccccc21
RP-LC retention time: 622 s

COc1ccc(-c2noc(C3CCCN3C(=O)COc3ccccc3)n2)cc1 (stereo not given)
RP-LC retention time: 936 s

Cn1c(NCCN(CCO)CCCc2ccc([N+](=O)[O-])cc2)cc(=O)n(C)c1=O
RP-LC retention time: 610 s

CC(C)c1cc(C2CCCN2C(=O)c2ccccc2)no1 (stereo not given)
RP-LC retention time: 847 s

Cc1ccc(C2NC(=O)N(CC(=O)Nc3ccc4c(c3)CCC4)C3=C2C(=O)OC3)cc1 (stereo not given)
RP-LC retention time: 856 s

C=CCNC(=O)c1ccc2c(c1)c(C)c(C)n2C
RP-LC retention time: 828 s

CN1CCCc2cc(C(CNC(=O)C(=O)NCc3ccccc3)N3CCCCC3)ccc21 (stereo not given)
RP-LC retention time: 746 s

Cc1noc(-c2cc(=O)n(CC(=O)Nc3cc(Cl)ccc3C)c3ccccc23)n1
RP-LC retention time: 942 s

Cc1ccc(-c2nc(CN3CCCC3=O)no2)cc1
RP-LC retention time: 782 s

O=C(NCc1cccs1)C1CC(=O)N(c2ccc3c(c2)CCN3C(=O)C2CC2)C1 (stereo not given)
RP-LC retention time: 710 s

COc1cc2ncc(-c3ccccc3)nc2cc1OC
RP-LC retention time: 1020 s

Cc1cc2nn(CC(=O)Nc3cc(F)cc(F)c3)c(=O)n2c(Nc2ccc(F)c(C)c2)n1
RP-LC retention time: 1070 s

Cc1ccnc(N2CCCC(C(=O)NCc3ccc(F)cc3)C2)n1 (stereo not given)
RP-LC retention time: 709 s

COC(=O)C1=CN(c2ccc(OC)c(Cl)c2)c2ccc(F)cc2S1(=O)=O
RP-LC retention time: 886 s

CN1CCCCCCN(C(=O)c2cccs2)[C@H]2CCC[C@H]2C1=O
RP-LC retention time: 826 s

O=C([C@@H]1C[C@H](F)CN1C(=O)NCc1ccc(F)cc1)N1CCc2ccccc2C1
RP-LC retention time: 747 s

O=C(NCc1cccs1)c1ccc(Cn2ccnc2)cc1
RP-LC retention time: 809 s

COc1cc(OC)c2c(C)cc(=O)oc2c1
RP-LC retention time: 809 s

O=C1c2cccc(OCC(=O)N3CCCc4ccccc43)c2CCN1Cc1cccnc1
RP-LC retention time: 594 s

CCN(CCN(C)C)c1ccc(C(=O)O)cc1NS(=O)(=O)c1ccc(F)cc1
RP-LC retention time: 613 s

O=C(c1cnn(-c2ccccc2)n1)N1CCN(C(=O)C2CC2c2ccc(F)cc2)CC1 (stereo not given)
RP-LC retention time: 898 s

CCn1c(=O)c2c(cc(C)n2C)n(CC(=O)Nc2ccc(C)cc2Cl)c1=O
RP-LC retention time: 871 s

Cn1nc(-c2nnc(-c3ccccc3F)o2)c2c1CCN(S(=O)(=O)c1ccc(C#N)cc1)C2
RP-LC retention time: 894 s

COc1ccccc1CNC(=O)CSc1ccc(-c2ccccn2)nn1
RP-LC retention time: 713 s

CCOC(=O)c1nc(N(C)c2ccc(F)cc2)c2ccccc2n1
RP-LC retention time: 909 s

CCOc1ncccc1CNC(=O)Cc1ccsc1
RP-LC retention time: 771 s

CN(C)[C@@H]1CN(Cc2ccc(F)c(F)c2)CC[C@@H]1CO
RP-LC retention time: 434 s

Cc1ccc(CN2CCN(CC(=O)Nc3ccc4c(c3)OCCO4)C(=O)C2=O)cc1
RP-LC retention time: 733 s

CCc1ccccc1NC(=O)N1CCC(N2CCN(Cc3ccccc3)C(=O)C2=O)CC1
RP-LC retention time: 730 s

CC1(C(=O)NCc2ccccc2)CCCN(C(=O)NCCc2ccccc2)C1 (stereo not given)
RP-LC retention time: 840 s

Cc1cccc(NC(=O)COc2cccc3c(=O)n(C)ccc23)c1
RP-LC retention time: 798 s

Cc1ccc2c(=O)c(C(=O)N3CCCCC3)cn(CC(=O)NC3CCCCC3)c2n1
RP-LC retention time: 731 s

COc1ccc(NC(=O)Cn2nc3nc(N4CCCC4)ccn3c2=O)cc1OC
RP-LC retention time: 617 s

COc1cc(NS(=O)(=O)c2cc3n(c2)CCCN(C)C3=O)cc(OC)c1
RP-LC retention time: 672 s

O=C(CCn1cnc2cc(-c3noc(COc4ccc(Cl)cc4)n3)ccc21)N1CCCCCC1
RP-LC retention time: 884 s

O=C(CCn1c(N2CCCC2)nc2ccsc2c1=O)NCc1ccc(F)cc1
RP-LC retention time: 755 s

Cc1ccc(CNC(=O)C2=CCN(Cc3cccc(F)c3)CC2)o1
RP-LC retention time: 626 s

CCn1cc(S(=O)(=O)N2CC(N(Cc3cccnc3)CC(C)C)C2)cn1
RP-LC retention time: 592 s

CCOC(=O)Cc1ccc(NC(=O)NC2CCN(c3cc(C)cc(C)c3)C2=O)cc1 (stereo not given)
RP-LC retention time: 888 s

Clc1ccc(-c2nc(N3CCCCCC3)c3ccccc3n2)cc1
RP-LC retention time: 847 s

COc1cc(NC(=O)Cn2nc3n(c2=O)CCCCC3)cc(OC)c1OC
RP-LC retention time: 659 s

CCCCN1C(=O)C(C)(C(=O)NCc2ccc(C)cc2)Oc2cccnc21 (stereo not given)
RP-LC retention time: 1040 s

COc1ccc(-c2cc(C(=O)N(C)C)c(C)n2C)cc1
RP-LC retention time: 808 s

O=C(CN1CCN(Cc2ccc(F)cc2)C1=O)NCCc1ccncc1
RP-LC retention time: 596 s

CCCNC(=O)c1cc2c(s1)N(CC1CC1)CCCC2
RP-LC retention time: 1020 s

CCCCC(=O)Nc1ccc2nc(N3CCN(c4ccccc4)CC3)cc(C(=O)O)c2c1
RP-LC retention time: 672 s

Cc1nnc(C2CC3(CCN(CCCO)CC3)CN2Cc2ccccc2)o1 (stereo not given)
RP-LC retention time: 577 s

Cc1c(C(=O)Nc2ccc(N3CCC(N4CCOCC4)CC3)c(C#N)c2)cnn1-c1ccc(Cl)cc1
RP-LC retention time: 800 s

O=C(CN1C(=O)CCCc2cc(S(=O)(=O)N3CCCCC3)ccc21)NCc1ccccc1Cl
RP-LC retention time: 909 s

CN(C(=O)Cn1c(CCO)nc2ccccc21)c1ccccc1
RP-LC retention time: 554 s

Cc1cc2c(cc1S(=O)(=O)N1CCCC1C(=O)N1CCc3ccccc31)OC(C)C(=O)N2 (stereo not given)
RP-LC retention time: 825 s

COC(=O)c1cc(S(=O)(=O)N2CCCC2C(=O)Nc2ccc(Br)c(C)c2)cn1C (stereo not given)
RP-LC retention time: 1010 s

CCn1ccnc1N1CCN(C(=O)COc2ccc(Cl)cc2Cl)CC1
RP-LC retention time: 593 s

COc1ccc(S(=O)(=O)N2CCCC(C(=O)Nc3cccc(F)c3)C2)cc1C (stereo not given)
RP-LC retention time: 1040 s

CCOC(=O)c1noc2nc(C)nc(NCCCN(C)c3ccccc3)c12
RP-LC retention time: 897 s

COc1ccc(NS(=O)(=O)c2cc3n(c2)CCCN(C)C3=O)cc1
RP-LC retention time: 650 s

CCn1cc(CN2CCC(C(=O)NCc3ccco3)CC2)c2cc(Cl)ccc21
RP-LC retention time: 722 s

Cc1cc(C)n(-c2ccc(=O)n(CCNC(=O)CCn3cnc4ccccc4c3=O)n2)n1
RP-LC retention time: 605 s

COc1ccc(Cl)c2c(=O)c3c([nH]c12)CCN(CC(=O)Nc1ccc(C)c(Cl)c1)C3
RP-LC retention time: 762 s

COc1cccc(-c2cc3c(=O)n(CC(O)c4cccc(C#N)c4)ccn3n2)c1 (stereo not given)
RP-LC retention time: 796 s

O=C(Nc1cccc(Cl)c1)C(=O)c1cn(CC(=O)N2CCCC2)c2ccccc12
RP-LC retention time: 1020 s

Cc1ccc(Nc2c(-c3ccc(C)cc3)nc3cccc(C)n23)cc1
RP-LC retention time: 782 s

Cc1cc(OCC(=O)N2CCC3(O)CCCCC3C2)c2c(C)c(C)c(=O)oc2c1 (stereo not given)
RP-LC retention time: 798 s

Cc1ccc2c(c1)C(C)(C)C(=O)N2CC(=O)N1CCCCC1
RP-LC retention time: 860 s
